ChEMBL document CHEMBL1811875, “Inverse virtual screening of antitumor targets: pilot study on a small database of natural bioactive compounds” (J Nat Prod, 2011)

How the values were obtained:
[1] = target: T1, DNA topoisomerase 1 (Homo sapiens, UniProt P11387); assay: Binding affinity to topoisomerase 1
T1 sequence (P11387 whole entry): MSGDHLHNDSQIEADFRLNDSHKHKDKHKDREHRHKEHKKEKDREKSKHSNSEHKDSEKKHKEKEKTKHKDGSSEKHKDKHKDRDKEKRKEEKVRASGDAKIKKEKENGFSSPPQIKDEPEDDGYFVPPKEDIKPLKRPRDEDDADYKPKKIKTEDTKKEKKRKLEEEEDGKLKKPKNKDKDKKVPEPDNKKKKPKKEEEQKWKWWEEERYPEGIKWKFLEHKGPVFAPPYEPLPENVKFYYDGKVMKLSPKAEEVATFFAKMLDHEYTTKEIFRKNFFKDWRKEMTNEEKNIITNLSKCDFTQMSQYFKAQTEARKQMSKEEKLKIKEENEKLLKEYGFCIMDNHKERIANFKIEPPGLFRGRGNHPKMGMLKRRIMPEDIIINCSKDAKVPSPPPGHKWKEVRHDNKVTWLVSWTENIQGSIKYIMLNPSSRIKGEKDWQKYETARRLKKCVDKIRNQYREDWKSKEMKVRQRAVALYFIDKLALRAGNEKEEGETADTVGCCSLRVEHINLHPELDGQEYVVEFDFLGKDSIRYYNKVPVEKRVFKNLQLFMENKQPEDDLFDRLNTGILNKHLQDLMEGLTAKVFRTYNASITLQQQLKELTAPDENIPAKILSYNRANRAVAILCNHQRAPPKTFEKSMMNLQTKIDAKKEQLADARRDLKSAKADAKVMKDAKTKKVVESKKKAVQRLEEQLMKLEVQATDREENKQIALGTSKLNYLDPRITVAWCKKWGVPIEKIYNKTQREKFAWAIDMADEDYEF

[2] = tested on: NCI-H460; assay: Cytotoxicity against human H460 cells assessed as stimulation of topoisomerase 1-mediated DNA cleavage; format: functional, cell-based
[3] = target: Wee1-like protein kinase (Homo sapiens, UniProt P30291); assay: Binding affinity to weel kinase
Sequence of Wee1-like protein kinase (P30291 whole entry): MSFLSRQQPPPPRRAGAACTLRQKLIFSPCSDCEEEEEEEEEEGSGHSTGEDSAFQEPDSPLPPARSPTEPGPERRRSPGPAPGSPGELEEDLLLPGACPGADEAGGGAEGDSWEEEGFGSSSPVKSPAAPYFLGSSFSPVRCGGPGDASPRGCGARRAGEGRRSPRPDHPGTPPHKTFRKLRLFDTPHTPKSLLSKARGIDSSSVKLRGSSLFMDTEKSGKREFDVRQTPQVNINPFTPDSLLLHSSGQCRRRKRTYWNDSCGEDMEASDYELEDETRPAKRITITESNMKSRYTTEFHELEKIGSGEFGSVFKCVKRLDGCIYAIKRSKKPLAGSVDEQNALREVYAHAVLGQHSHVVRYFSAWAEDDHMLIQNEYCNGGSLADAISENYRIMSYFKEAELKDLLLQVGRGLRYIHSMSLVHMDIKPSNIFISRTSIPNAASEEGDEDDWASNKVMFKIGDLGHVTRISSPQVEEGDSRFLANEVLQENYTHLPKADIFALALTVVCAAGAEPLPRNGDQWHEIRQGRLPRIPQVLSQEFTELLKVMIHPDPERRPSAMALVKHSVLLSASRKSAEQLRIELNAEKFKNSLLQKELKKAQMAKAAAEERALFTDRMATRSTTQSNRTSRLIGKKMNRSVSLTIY

SMILES	Kd [1]	IC50 [2]	Kd [3]
CC[C@@]1(O)C(=O)OCc2c1cc1n(c2=O)Cc2c-1nc1ccccc1c2/C=N/c1ccccc1C	0.296 nM	400 nM	–
CC[C@@]1(O)C(=O)OCc2c1cc1n(c2=O)Cc2c-1nc1ccccc1c2/C=N\OCCCO	2.65 nM	400 nM	–
Cc1cc(=O)c2c(O)cc3c(c2o1)C(=O)c1c(O)cc(O)cc1C3=O [TOPOPYRONE C]	–	–	1.35 nM
CC[C@@]1(O)C(=O)OCc2c1cc1n(c2=O)Cc2cc3c(CN(C)C)c(O)ccc3nc2-1 [TOPOTECAN]	–	1380 nM	–
